Results reported in patent US20230125667A1, “NOVEL TDZD ANALOGS AS AGENTS THAT DELAY, PREVENT, OR REVERSE AGE-ASSOCIATED DISEASES AND AS ANTI-CANCER AND ANTILEUKEMIC AGENTS” (United States Government as represented by the Department …, priority 2020, published 2023).

Experiments:
U251 = assay: NCI-60 growth inhibition: U251 (CNS Cancer); assay type: cell-based, human
OVCAR-8 = assay: NCI-60 growth inhibition: OVCAR-8 (Ovarian Cancer); assay type: cell-based, human
MCF7 = assay: NCI-60 growth inhibition: MCF7 (Breast Cancer); assay type: cell-based, human
HOP-92 = assay: NCI-60 growth inhibition: HOP-92 (Non-Small-Cell Lung Cancer); assay type: cell-based, human
NCI-H23 = assay: NCI-60 growth inhibition: NCI-H23 (Non-Small-Cell Lung Cancer); assay type: cell-based, human
MDA-MB-435 = assay: NCI-60 growth inhibition: MDA-MB-435 (Melanoma); assay type: cell-based, human
HL-60(TB) = assay: NCI-60 growth inhibition: HL-60(TB) (Leukemia); assay type: cell-based, human; details: HL-60(TB) (Leukemia); read-out: GI50
HCT-116 = assay: NCI-60 growth inhibition: HCT-116 (Colon Cancer)
SNB-19 = assay: NCI-60 growth inhibition: SNB-19 (CNS Cancer); assay type: cell-based, human
OVCAR-4 = assay: NCI-60 growth inhibition: OVCAR-4 (Ovarian Cancer); assay type: cell-based, human
[1] = tested on: MV4-11 cell line (myelomonocytic leukemia); details: MV4-11 cells; for LD50, 7AAD (μM) 24 h / LD50, Alamar blue (μM) 24 h / LD50, YOPRO (μM) 24 h: MMB-TDZD analogs (Table 2)
SNB-75 = assay: NCI-60 growth inhibition: SNB-75 (CNS Cancer); assay type: cell-based, human
NCI-H460 = assay: NCI-60 growth inhibition: NCI-H460 (Non-Small-Cell Lung Cancer); assay type: cell-based, human
OVCAR-3 = assay: NCI-60 growth inhibition: OVCAR-3 (Ovarian Cancer); assay type: cell-based, human
NCI-H522 = assay: NCI-60 growth inhibition: NCI-H522 (Non-Small-Cell Lung Cancer)
RPMI-8226 = assay: NCI-60 growth inhibition: RPMI-8226 (Leukemia); assay type: cell-based, human
MALME-3M = assay: NCI-60 growth inhibition: MALME-3M (Melanoma); assay type: cell-based, human
SK-MEL-2 = assay: NCI-60 growth inhibition: SK-MEL-2 (Melanoma); assay type: cell-based, human
MDA-MB-468 = assay: NCI-60 growth inhibition: MDA-MB-468 (Breast Cancer); assay type: cell-based, human; details: MDA-MB-468 (Breast Cancer); read-out: GI50
CCRF-CEM = assay: NCI-60 growth inhibition: CCRF-CEM (Leukemia); assay type: cell-based, human
SF-268 = assay: NCI-60 growth inhibition: SF-268 (CNS Cancer); assay type: cell-based, human
ACHN = assay: NCI-60 growth inhibition: ACHN (Renal Cancer); assay type: cell-based, human
SR = assay: NCI-60 growth inhibition: SR (Leukemia); assay type: cell-based, human
TK-10 = assay: NCI-60 growth inhibition: TK-10 (Renal Cancer); assay type: cell-based, human
EKVX = assay: NCI-60 growth inhibition: EKVX (Non-Small-Cell Lung Cancer); assay type: cell-based, human
LOX IMVI = assay: NCI-60 growth inhibition: LOX IMVI (Melanoma); assay type: cell-based, human
PC-3 = assay: NCI-60 growth inhibition: PC-3 (Prostate Cancer); assay type: cell-based, human
BT-549 = assay: NCI-60 growth inhibition: BT-549 (Breast Cancer); assay type: cell-based, human
A498 = assay: NCI-60 growth inhibition: A498 (Renal Cancer); assay type: cell-based, human
HS 578T = assay: NCI-60 growth inhibition: HS 578T (Breast Cancer); assay type: cell-based, human
HT29 = assay: NCI-60 growth inhibition: HT29 (Colon Cancer); assay type: cell-based, human
IGROV1 = assay: NCI-60 growth inhibition: IGROV1 (Ovarian Cancer); assay type: cell-based, human
M14 = assay: NCI-60 growth inhibition: M14 (Melanoma); assay type: cell-based, human
HCT-15 = assay: NCI-60 growth inhibition: HCT-15 (Colon Cancer); assay type: cell-based, human
SK-MEL-5 = assay: NCI-60 growth inhibition: SK-MEL-5 (Melanoma); assay type: cell-based, human
UACC-62 = assay: NCI-60 growth inhibition: UACC-62 (Melanoma); assay type: cell-based, human
CAKI-1 = assay: NCI-60 growth inhibition: CAKI-1 (Renal Cancer); assay type: cell-based, human
UACC-257 = assay: NCI-60 growth inhibition: UACC-257 (Melanoma); assay type: cell-based, human
MOLT-4 = assay: NCI-60 growth inhibition: MOLT-4 (Leukemia); assay type: cell-based, human
SW-620 = assay: NCI-60 growth inhibition: SW-620 (Colon Cancer); assay type: cell-based, human
MDA-MB-231/ATCC = assay: NCI-60 growth inhibition: MDA-MB-231/ATCC (Breast Cancer); assay type: cell-based, human
COLO 205 = assay: NCI-60 growth inhibition: COLO 205 (Colon Cancer); assay type: cell-based, human
SK-MEL-28 = assay: NCI-60 growth inhibition: SK-MEL-28 (Melanoma); assay type: cell-based, human
UO-31 = assay: NCI-60 growth inhibition: UO-31 (Renal Cancer); assay type: cell-based, human
T-47D = assay: NCI-60 growth inhibition: T-47D (Breast Cancer); assay type: cell-based, human
OVCAR-5 = assay: NCI-60 growth inhibition: OVCAR-5 (Ovarian Cancer); assay type: cell-based, human
DU-145 = assay: NCI-60 growth inhibition: DU-145 (Prostate Cancer); assay type: cell-based, human
SF-539 = assay: NCI-60 growth inhibition: SF-539 (CNS Cancer); assay type: cell-based, human
786-0 = assay: NCI-60 growth inhibition: 786-0 (Renal Cancer); assay type: cell-based, human
SN12C = assay: NCI-60 growth inhibition: SN12C (Renal Cancer); assay type: cell-based, human
RXF 393 = assay: NCI-60 growth inhibition: RXF 393 (Renal Cancer); assay type: cell-based, human
K-562 = assay: NCI-60 growth inhibition: K-562 (Leukemia); assay type: cell-based, human
[2] = tested on: human leukemia cell lines; assay: NCI-60 growth inhibition, leukemia cell lines; details: NCI panel
[3] = NCI-H522 (Non-Small-Cell Lung Cancer)

`C=C1C(=O)O[C@H]2[C@H]1CC/C(COC(=O)NCc1ccc(Cn3c(=O)sn(CCCCC)c3=O)cc1)=C\CC[C@@]1(C)O[C@@H]21` [BSK-218] gave a GI50 (U251) of 2.2 µM, a GI50 (OVCAR-8) of 2.26 µM and a GI50 (MCF7) of 1.79 µM. The GI50 (HOP-92) was 1.38 µM, the GI50 (NCI-H23) was 1.94 µM and the GI50 (MDA-MB-435) was 1.71 µM. For the same compound, the GI50 (HL-60(TB)) was 1.1 µM, the GI50 (HCT-116; HCT-116 (Colon Cancer)) was 1.73 µM and the GI50 (SNB-19) was 5.06 µM. The GI50 (OVCAR-4) was 1.62 µM, the “LD50, 7AAD (μM) 24 h” value [1] was 1.3 µM and the “LD50, Alamar blue (μM) 24 h” value [1] was 0.8 µM. For the same compound, the “LD50, YOPRO (μM) 24 h” value [1] was 1.07 µM, the LD50 ([1]; values in text) was 760 nM and the GI50 (SNB-75) was 1.59 µM. It also gave a GI50 (NCI-H460) of 3.42 µM, a GI50 (OVCAR-3) of 1.41 µM and a GI50 (NCI-H522; [3]) of 1.59 µM. The GI50 (RPMI-8226) was 1.12 µM, the GI50 (MALME-3M) was 1.61 µM and the GI50 (SK-MEL-2) was 2.42 µM. For the same compound, the GI50 (MDA-MB-468) was 1.19 µM, the GI50 (CCRF-CEM) was 0.36 µM and the GI50 (SF-268) was 1.88 µM. For the same compound, the GI50 (ACHN) was 1.68 µM, the GI50 (SR) was 2.99 µM and the GI50 (TK-10) was 1.96 µM. The GI50 (EKVX) was 1.85 µM, the GI50 (LOX IMVI) was 1.59 µM and the GI50 (PC-3) was 1.92 µM. It also gave a GI50 (BT-549) of 1.91 µM, a GI50 (A498) of 2.91 µM and a GI50 (HS 578T) of 2.79 µM. The GI50 (HT29) was 2.09 µM, the GI50 (IGROV1) was 2.11 µM and the GI50 (M14) was 1.89 µM. For the same compound, the GI50 (HCT-15) was 1.66 µM, the GI50 (SK-MEL-5) was 3.92 µM and the GI50 (UACC-62) was 1.59 µM. For the same compound, the GI50 (CAKI-1) was 2.84 µM, the GI50 (UACC-257) was 1.57 µM and the GI50 (MOLT-4) was 5.9 µM. For the same compound, the GI50 (SW-620) was 1.31 µM, the GI50 (MDA-MB-231/ATCC) was 1.72 µM and the GI50 (COLO 205) was 1.78 µM. For the same compound, the GI50 (SK-MEL-28) was 1.85 µM, the GI50 (UO-31) was 1.46 µM and the GI50 (T-47D) was 1.75 µM. For the same compound, the GI50 (OVCAR-5) was 2.01 µM, the GI50 (DU-145) was 1.68 µM and the GI50 (SF-539) was 1.64 µM. For the same compound, the GI50 (786-0) was 1.98 µM and the GI50 (SN12C) was 1.71 µM.
For `C=C1C(=O)O[C@H]2[C@H]1CC/C(COC(=O)NCc1ccc(Cn3c(=O)sn(CCCC#N)c3=O)cc1)=C\CC[C@@]1(C)O[C@@H]21` [BSK-226], the GI50 (U251) was 5.05 µM, the GI50 (OVCAR-8) was 2.32 µM and the GI50 (MCF7) was 1.71 µM. It also gave a GI50 (HOP-92) of 1.1 µM, a GI50 (NCI-H23) of 2.33 µM and a GI50 (MDA-MB-435) of 1.8 µM. It also gave a GI50 (HL-60(TB)) of 0.96 µM, a GI50 (HCT-116; HCT-116 (Colon Cancer)) of 0.56 µM and a GI50 (HCT-116; HCT-116 (colon cancer)) of 0.56 µM. The GI50 (SNB-19) was 4.84 µM, the GI50 (OVCAR-4) was 1.67 µM and the “LD50, 7AAD (μM) 24 h” value [1] was 0.75 µM. The “LD50, Alamar blue (μM) 24 h” value [1] was 0.45 µM, the “LD50, YOPRO (μM) 24 h” value [1] was 0.37 µM and the GI50 (SNB-75) was 2.03 µM. The GI50 (NCI-H460) was 11.3 µM, the GI50 (OVCAR-3) was 0.77 µM and the GI50 (NCI-H522; [3]) was 0.53 µM. It also gave a GI50 (NCI-H522; NCI-H522 (non-small-cell lung cancer)) of 0.53 µM, a GI50 (RXF 393) of 1.35 µM and a GI50 (RPMI-8226) of 0.76 µM. For the same compound, the GI50 (K-562) was 0.72 µM, the GI50 (MALME-3M) was 1.34 µM and the GI50 (SK-MEL-2) was 4.83 µM. The GI50 (MDA-MB-468) was 1.53 µM, the GI50 (CCRF-CEM) was 0.57 µM and the GI50 (SF-268) was 2.63 µM. For the same compound, the GI50 (ACHN) was 1.66 µM, the “potency against leukemia cell lines (GI50 <1.0)” value [2] was “comparably potent against 4 out of 5 leukemia cell lines” and the GI50 (TK-10) was 1.75 µM. It also gave a GI50 (EKVX) of 2.82 µM, a GI50 (LOX IMVI) of 1.58 µM and a GI50 (PC-3) of 2.13 µM. For the same compound, the GI50 (BT-549) was 1.48 µM, the GI50 (A498) was 2.83 µM and the GI50 (HS 578T) was 5.64 µM. The GI50 (HT29) was 2.46 µM, the GI50 (IGROV1) was 1.78 µM and the GI50 (M14) was 1.93 µM. For the same compound, the GI50 (HCT-15) was 1.94 µM, the GI50 (SK-MEL-5) was 3.72 µM and the GI50 (UACC-62) was 1.44 µM. For the same compound, the GI50 (CAKI-1) was 2.05 µM, the GI50 (UACC-257) was 1.61 µM and the GI50 (MOLT-4) was 1.5 µM. For the same compound, the GI50 (SW-620) was 1.23 µM, the GI50 (MDA-MB-231/ATCC) was 1.72 µM and the GI50 (COLO 205) was 2.04 µM. For the same compound, the GI50 (SK-MEL-28) was 1.69 µM, the GI50 (UO-31) was 1.4 µM and the GI50 (T-47D) was 1.97 µM. For the same compound, the GI50 (OVCAR-5) was 2.64 µM, the GI50 (DU-145) was 1.64 µM and the GI50 (SF-539) was 1.73 µM. The GI50 (786-0) was 1.48 µM and the GI50 (SN12C) was 1.36 µM.
